Assay results as given in PMC4836865 (Chemical Science, 2015).

Tests used:
Format in all cases: biochemical
MelBEc [1] = target: T1, MelBEc (Escherichia coli, UniProt P02921); test: Trp to dansyl FRET, reversed by melibiose; settings: solubilised in NDT-C11; fluorescent ligand displaced by melibiose
MelBEc [2] = target: T1, MelBEc; test: melibiose reversal of Trp to D2G FRET; settings: solubilised in NDT-C11; displaces D2G
[3] = target: MelBSt (melibiose permease of Salmonella typhimurium) (Salmonella enterica, UniProt P30878); test: melibiose reversal of Trp to D2G FRET; settings: solubilised in DDM or NDT-C11; displaces D2G
MelBSt (melibiose permease of Salmonella typhimurium), sequence (P30878 whole entry): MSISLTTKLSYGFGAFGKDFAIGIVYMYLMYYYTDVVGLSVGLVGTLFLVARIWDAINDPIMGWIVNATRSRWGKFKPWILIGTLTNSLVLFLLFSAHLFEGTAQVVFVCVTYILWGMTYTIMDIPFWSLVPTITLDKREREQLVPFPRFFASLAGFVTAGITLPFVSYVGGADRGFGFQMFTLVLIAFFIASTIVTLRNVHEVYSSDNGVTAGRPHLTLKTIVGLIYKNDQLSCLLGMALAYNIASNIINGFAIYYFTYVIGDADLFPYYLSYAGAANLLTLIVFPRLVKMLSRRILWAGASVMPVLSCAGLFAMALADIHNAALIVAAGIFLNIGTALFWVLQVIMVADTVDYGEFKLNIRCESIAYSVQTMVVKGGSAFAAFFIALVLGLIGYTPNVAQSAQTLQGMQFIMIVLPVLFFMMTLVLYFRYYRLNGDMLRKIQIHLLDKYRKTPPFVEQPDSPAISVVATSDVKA

T1 sequence (P02921 2-473): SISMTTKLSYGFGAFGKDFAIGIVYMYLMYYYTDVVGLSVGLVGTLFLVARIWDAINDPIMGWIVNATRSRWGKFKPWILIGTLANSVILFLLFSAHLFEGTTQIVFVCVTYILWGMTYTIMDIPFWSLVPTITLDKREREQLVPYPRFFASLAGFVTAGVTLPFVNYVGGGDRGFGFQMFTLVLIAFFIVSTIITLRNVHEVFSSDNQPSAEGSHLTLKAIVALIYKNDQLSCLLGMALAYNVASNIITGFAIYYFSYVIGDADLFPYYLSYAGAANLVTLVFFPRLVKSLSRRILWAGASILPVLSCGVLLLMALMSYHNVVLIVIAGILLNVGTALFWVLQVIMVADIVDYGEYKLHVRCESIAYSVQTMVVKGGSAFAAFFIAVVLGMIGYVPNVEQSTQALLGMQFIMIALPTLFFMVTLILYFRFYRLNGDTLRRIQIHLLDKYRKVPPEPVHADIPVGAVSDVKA

SMILES: CN(C)c1cccc2c(S(=O)(=O)NCCS[C@@H]3O[C@H](CO)[C@H](O)[C@H](O)[C@H]3O)cccc12 [2′-(N-dansyl)aminoalkyl-1-thio-β-D-galactopyranoside]
- Trp to dansyl FRET, reversed by melibiose (MelBEc [1]): FRET response of the D^2G bound MelB to melibiose or water addition

SMILES: OC[C@H]1O[C@H](OC[C@H]2OC(O)[C@H](O)[C@@H](O)[C@@H]2O)[C@H](O)[C@@H](O)[C@H]1O (stereo partly drawn) [melibiose]
- melibiose reversal of Trp to D2G FRET (MelBEc [2]): NDT-C11 is capable of maintaining the melibiose binding activity of both MelBSt and MelBEc
- melibiose reversal of Trp to D2G FRET [3]: MelBSt solubilized in DDM or NDT-C11 was subjected to melibiose reversal of Trp
